One assay has as its system BT-549 breast. Put plainly: NCI anticancer screen, dose series, 48 h.
The next assay concerns MDA-MB-231 breast. The assay is described as follows: NCI anticancer screen, dose series, 48 h.

SMILES strings stand for the structures.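 Protocol summary: plate cells (96-well), add compound at 5 concentrations, incubate 48 h, interpolate endpoints linearly. Here, GI50 denotes the concentration required for 50% inhibition of growth. TGI denotes the concentration required for complete inhibition of growth.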

For the compound `c1ccc(-c2cc3n4c(-c5ccccc5)nn(-c5ccccc5)c4cnc-3n2)cc1`, in the assay with BT-549 breast, the GI50 is 48.6 µM and the TGI was above 50 µM. Further, in the assay on MDA-MB-231 breast, the GI50 was 16.4 µM and the TGI is above 50 µM.

On to `CCSc1nc(N)c2cnn(CC)c2n1`, for which, in the assay on MDA-MB-231 breast, the GI50 was 2.08 µM and the TGI stood at 7.29 µM.

For the compound `Cc1c2ccccc2c(C)n2c1nc1cc(Cl)c(Cl)cc12`, the figures for the GI50 in the assay on BT-549 breast and in the assay on MDA-MB-231 breast were above 100 µM and 72.5 µM, respectively. The TGI in the assay with BT-549 breast and with MDA-MB-231 breast was above 100 µM in each case.

Turning to `CCOC(=O)N(O)c1ccc(/C=C/c2ccccc2)cc1`, in the assay on BT-549 breast, the GI50 was 9.38 µM and the TGI came out at 40 µM. Besides, in the assay on MDA-MB-231 breast, the GI50 was 9.39 µM and the TGI came out at 39.9 µM.

For `CC[C@@H](C(=O)[C@@H](C)[C@@H](O)[C@H](C)[C@@H]1O[C@@H]([C@@H](CC)C(=O)O)CC[C@@H]1C)[C@H]1O[C@]2(C=C[C@@H](O)[C@]3(CC[C@@](C)([C@H]4CC[C@](O)(CC)[C@H](C)O4)O3)O2)[C@H](C)C[C@@H]1C`, in the assay on BT-549 breast, the GI50 was 0.248 µM and the TGI was determined as 4.33 µM. Further, in the assay with MDA-MB-231 breast, the GI50 is 0.732 µM and the TGI amounted to 7.68 µM.

With `O=C(N/N=C/c1ccc(N(CCCl)CCCl)cc1)c1ccc(C(=O)N/N=C/c2ccc(N(CCCl)CCCl)cc2)cc1`, in the assay on BT-549 breast, the GI50 is 2.34 µM and the TGI turned out to be 76.5 µM. Moreover, in the assay with MDA-MB-231 breast, the GI50 was 4.73 µM and the TGI was above 100 µM.

`CC(=O)/C(=C/N1CCN(C(=O)c2ccco2)C1=S)C(=O)c1ccccc1`: in the assay on BT-549 breast, the GI50 was 5.54 µM and the TGI amounted to 18.1 µM. In the assay with MDA-MB-231 breast, the GI50 is 9.46 µM and the TGI is 19.8 µM.

`C=Cc1cc(OC)c2c(c1)c(=O)oc1c2cc(OC)c2c(O)ccc(C3OC(C(C)O)C(O)C3O)c21` (centres undefined): in the assay on BT-549 breast, the GI50 is 0.00769 µM and the TGI amounted to 0.0391 µM. In addition, in the assay on MDA-MB-231 breast, the GI50 is 0.0438 µM and the TGI is above 1 µM.

As for `CSc1nc2ccc(C)cc2cc1/C=C1/C=C(c2ccccc2)NC1=O`, the figures for the GI50 in the assay on BT-549 breast and in the assay on MDA-MB-231 breast were 3.94 µM and 4.42 µM, respectively. Besides, the results for the TGI in the assay with BT-549 breast and with MDA-MB-231 breast were 22.9 µM and 36.6 µM, respectively.

In the case of `N#Cc1cc2c(cc1Cl)SC(=Nc1ccccc1)N(S(=O)(=O)c1ccc(Br)s1)S2(=O)=O`, in the assay on BT-549 breast, the GI50 was 17.7 µM and the TGI was found to be 32.2 µM. In the assay on MDA-MB-231 breast, the GI50 was 22.8 µM and the TGI worked out at 42.1 µM.

On to `C=C(CN1CCN(c2ccc(F)c(Cl)c2)CC1)c1ccc(C(=O)Nc2ccccc2N)cc1`, for which the GI50 in the assay on BT-549 breast was 3.51 µM; with MDA-MB-231 breast it was 1.81 µM. Besides, the results for the TGI in the assay on BT-549 breast and in the assay with MDA-MB-231 breast were 26.5 µM and 6.81 µM, respectively.

With `CC1=C(SCCC(=O)OC(C[Se]C2=C(C)C(=O)c3ccccc3C2=O)C(=O)NC(C)(C)C)C(=O)c2ccccc2C1=O` (centres undefined), the GI50 was 1.64 µM with BT-549 breast and 1.49 µM in the assay on MDA-MB-231 breast. For the same compound, the TGI worked out at 3.05 µM in the assay on BT-549 breast and 2.94 µM in the assay on MDA-MB-231 breast.

On to `CN(C)CCOc1ccc2c(c1)C(=O)/C(=C\c1ncc([N+](=O)[O-])n1C)C2`, for which, in the assay on BT-549 breast, the GI50 is 0.146 µM and the TGI worked out at 0.529 µM. In the assay on MDA-MB-231 breast, the GI50 was 0.418 µM and the TGI amounted to 2.33 µM.

Regarding `CNC(=O)c1cc(-c2ccc(F)cc2)cc(-c2ccc(S(=O)(=O)N3CCCC3)cc2)c1N`, in the assay with BT-549 breast, the GI50 is above 21.2 µM and the TGI was above 25 µM. Further, in the assay on MDA-MB-231 breast, the GI50 is above 20.8 µM and the TGI was above 25 µM.

Consider `Cn1cc(-c2csc(-c3cn(C(=O)OC(C)(C)C)c4ccccc34)n2)c2cccnc21`, for which, in the assay on BT-549 breast, the GI50 was 6.87 µM and the TGI amounted to 21.2 µM. Also, in the assay with MDA-MB-231 breast, the GI50 is 5.3 µM and the TGI turned out to be 20 µM.

`CCCCCCCCc1cc(O)ccc1O`: the GI50 in the assay on BT-549 breast was 10.9 µM; with MDA-MB-231 breast, 13 µM. The TGI worked out at 23.3 µM in the assay on BT-549 breast and 27.3 µM in the assay on MDA-MB-231 breast.

`CC(=O)OC1=C(CC(C)(C)C)C(=O)c2ccccc2C1=O` registered a TGI with MDA-MB-231 breast above 100 µM.

For `C[C@@H]1Cc2c(ccc3[nH]ncc23)[C@@H](c2ccc(NC3CN(CCCF)C3)cn2)N1CC(F)(F)F`, the GI50 with BT-549 breast was 16 µM; with MDA-MB-231 breast, 17 µM. Also, the TGI in the assay with BT-549 breast is 37.2 µM; in the assay with MDA-MB-231 breast, 34.5 µM.

For `N=C1C=C(N)C(=O)c2ccccc21`, in the assay on BT-549 breast, the GI50 is 0.452 µM and the TGI came out at 0.929 µM. Moreover, in the assay on MDA-MB-231 breast, the GI50 was 0.18 µM and the TGI is 0.554 µM.

For `Cc1cc2nc(-c3ccc(O)c(O)c3)n(Cc3ccc(O)c(O)c3)c2cc1C`, in the assay with BT-549 breast, the GI50 was 28.9 µM and the TGI is above 100 µM. In the assay on MDA-MB-231 breast, the GI50 is 24.1 µM and the TGI was found to be 77.3 µM.

For `Cc1nc2sc(C(=O)Nc3ccccc3)c(N)c2cc1C(=O)c1ccccc1`, the values for the GI50 in the assay on BT-549 breast and with MDA-MB-231 breast were 1.89 µM and 3.04 µM, respectively. Moreover, the TGI in the assay with BT-549 breast and in the assay with MDA-MB-231 breast was above 50 µM throughout.

For the origin of these results see PubChem BioAssay (NCI).
